Test results reported in the NIST ThermoML archive (doi:10.1021/acs.jced.6b00197).
± gives the expanded uncertainty stated by the source.

Legend:
[1] = Boiling temperature at pressure P; conditions: Liquid, Ebulliometric method (Recirculating still)
[2] = refractive index (Na D-line) (dimensionless); conditions: 293.25 K; 101.33 kPa; Liquid; Standard Abbe refractometry
[3] = Liquid; for mass density: 293.15 K, 101.33 kPa, Pycnometric method; for Normal boiling temperature: Ebulliometric method (Recirculating still)

CC(C)CCO [3-methylbutan-1-ol]
Boiling temperature at pressure P ([1]; 5 kPa): 62.70 ± 0.26 °C
Boiling temperature at pressure P ([1]; 10 kPa): 75.77 ± 0.21 °C
Boiling temperature at pressure P ([1]; 19.99 kPa): 90.18 ± 0.16 °C
Boiling temperature at pressure P ([1]; 40.01 kPa): 106.36 ± 0.15 °C
Boiling temperature at pressure P ([1]; 49.99 kPa): 111.97 ± 0.15 °C
Boiling temperature at pressure P ([1]; 59.99 kPa): 116.67 ± 0.15 °C
Boiling temperature at pressure P ([1]; 79.99 kPa): 124.46 ± 0.14 °C
Boiling temperature at pressure P ([1]; 100 kPa): 130.86 ± 0.14 °C
Boiling temperature at pressure P ([1]; 101.31 kPa): 131.21 ± 0.14 °C
Boiling temperature at pressure P ([1]; 120 kPa): 136.04 ± 0.14 °C
Boiling temperature at pressure P ([1]; 139.99 kPa): 141.06 ± 0.14 °C
Boiling temperature at pressure P ([1]; 159.99 kPa): 145.36 ± 0.14 °C
Boiling temperature at pressure P ([1]; 180.01 kPa): 149.28 ± 0.14 °C
Boiling temperature at pressure P ([1]; 200 kPa): 152.86 ± 0.14 °C
refractive index [2]: 1.4067 ± 0.0008
mass density [3]: 810 ± 8 kg/m3
Normal boiling temperature [3]: 131.30 ± 0.2 °C

CC(=O)OCCC(C)C [3-methylbutyl ethanoate]
Boiling temperature at pressure P ([1]; 4.98 kPa): 59.86 ± 0.29 °C
Boiling temperature at pressure P ([1]; 10.05 kPa): 75.04 ± 0.23 °C
Boiling temperature at pressure P ([1]; 19.88 kPa): 92.10 ± 0.17 °C
Boiling temperature at pressure P ([1]; 39.98 kPa): 111.42 ± 0.16 °C
Boiling temperature at pressure P ([1]; 50.03 kPa): 118.20 ± 0.15 °C
Boiling temperature at pressure P ([1]; 60.02 kPa): 123.93 ± 0.15 °C
Boiling temperature at pressure P ([1]; 79.97 kPa): 133.43 ± 0.15 °C
Boiling temperature at pressure P ([1]; 99.82 kPa): 141.17 ± 0.15 °C
Boiling temperature at pressure P ([1]; 101.09 kPa): 141.63 ± 0.15 °C
Boiling temperature at pressure P ([1]; 120.12 kPa): 147.90 ± 0.15 °C
Boiling temperature at pressure P ([1]; 140.02 kPa): 153.64 ± 0.15 °C
Boiling temperature at pressure P ([1]; 159.98 kPa): 158.77 ± 0.15 °C
Boiling temperature at pressure P ([1]; 179.92 kPa): 163.38 ± 0.15 °C
Boiling temperature at pressure P ([1]; 199.94 kPa): 167.59 ± 0.15 °C
refractive index [2]: 1.4008 ± 0.0008
mass density [3]: 873 ± 8 kg/m3
Normal boiling temperature [3]: 142.09 ± 0.2 °C
